The results in this text go back to patent US20240041959A1, “NOVEL MODIFIED REOVIRUS AND USE THEREOF” (priority 2020, published 2024).

One series relates to normal cell line HS27. In words: WST cell viability in normal cell line (Example 3). Type of series: cell-based, human. As to conditions: HS27, 3 days, FIG. 1A. Here is the method:
The cell lines used in this example are as follows: normal cell line HS27, and paclitaxel-resistant cancer cell lines Skmel28, A375, and B16F10. Each cell line was cultured in DMEM medium containing 10% fetal bovine serum and seeded at a density of 3,000 cells/well in a 96-well plate, followed by incubation at 37° C. and 5% CO2 for 24 hours. RP116 was serially diluted at concentrations ranging from 0.008 to 1,000 MOI (Multiplicity of Infection) and treated to the prepared cells, and further incubated for three days at 37° C. and 5% CO2. The number of surviving cells was measured using a WST kit (DoGen, Seoul, South Korea, Cat No: EZ-3000) according to the manufacturer's instructions.

The test system of series [1] is paclitaxel-resistant cancer cell lines Skmel28, A375, and B16F10. In words: WST cell viability in paclitaxel-resistant cancer cell lines (Example 3). The class given is cell-based. The settings on record: even at high concentrations of 100 nM or more, FIG. 1B. Here is the method:
The cell lines used in this example are as follows: normal cell line HS27, and paclitaxel-resistant cancer cell lines Skmel28, A375, and B16F10. Each cell line was cultured in DMEM medium containing 10% fetal bovine serum and seeded at a density of 3,000 cells/well in a 96-well plate, followed by incubation at 37° C. and 5% CO2 for 24 hours. […] The number of surviving cells was measured using a WST kit (DoGen, Seoul, South Korea, Cat No: EZ-3000) according to the manufacturer's instructions.

Molecules are shown by their SMILES.

`CC(=O)O[C@H]1C(=O)[C@@]2(C)[C@H]([C@H](OC(=O)c3ccccc3)[C@]3(O)C[C@H](OC(=O)[C@H](O)[C@@H](NC(=O)c4ccccc4)c4ccccc4)C(C)=C1C3(C)C)[C@]1(OC(C)=O)CO[C@@H]1C[C@@H]2O` [paclitaxel]: in the series with normal cell line HS27, the “cell viability of normal cell line vs control group” value is “cell viability decreased in a concentration-dependent manner”. Moreover, the “cell viability of paclitaxel-resistant cancer cells vs control group” value in series [1] is listed as “no significant difference in cell viability compared to the control group”.
